Measurements taken from ChEMBL document CHEMBL1134497, “Soluble 2-substituted aminopyrido[2,3-d]pyrimidin-7-yl ureas. Structure-activity relationships against selected tyrosine kinases and exploration of in vitro and in vivo anticancer activity” (J Med Chem, 2001).

Experiments:
[1] = biological target: Cyclin-dependent kinase 4 (Homo sapiens, UniProt P11802); assay: Inhibition of cyclin dependent kinase 4 (CDK4)
[2] = Inhibition of MEK1/ERK (MAP Kinase kinase) in cascade assay
[3] = biological target: T1, Platelet-derived growth factor receptor (PDGFr) (Rattus norvegicus, UniProt P20786+Q05030); assay: (§1) Inhibition of PDGF receptor autophosphorylation in rat aortic vascular smooth muscle cells
[4] = test system: HCT-8; assay: Inhibition of human colon carcinoma HCT-8 cell proliferation; format: functional, cell-based
[5] = test system: HT-29; assay: Inhibition of human colon carcinoma HT-29 cell proliferation; format: functional, cell-based
[6] = biological target: Proto-oncogene tyrosine-protein kinase Src (Gallus gallus, UniProt P00523); assay: Ability to prevent phosphorylation of avian c-Src TK
[7] = biological target: Protein kinase C (PKC); assay: Inhibition of protein kinase C; format: protein assay
[8] = biological target: Insulin receptor (Homo sapiens, UniProt P06213); assay: Inhibition of insulin receptor kinase
Chain of Insulin receptor (P06213 28-758 limits assumed): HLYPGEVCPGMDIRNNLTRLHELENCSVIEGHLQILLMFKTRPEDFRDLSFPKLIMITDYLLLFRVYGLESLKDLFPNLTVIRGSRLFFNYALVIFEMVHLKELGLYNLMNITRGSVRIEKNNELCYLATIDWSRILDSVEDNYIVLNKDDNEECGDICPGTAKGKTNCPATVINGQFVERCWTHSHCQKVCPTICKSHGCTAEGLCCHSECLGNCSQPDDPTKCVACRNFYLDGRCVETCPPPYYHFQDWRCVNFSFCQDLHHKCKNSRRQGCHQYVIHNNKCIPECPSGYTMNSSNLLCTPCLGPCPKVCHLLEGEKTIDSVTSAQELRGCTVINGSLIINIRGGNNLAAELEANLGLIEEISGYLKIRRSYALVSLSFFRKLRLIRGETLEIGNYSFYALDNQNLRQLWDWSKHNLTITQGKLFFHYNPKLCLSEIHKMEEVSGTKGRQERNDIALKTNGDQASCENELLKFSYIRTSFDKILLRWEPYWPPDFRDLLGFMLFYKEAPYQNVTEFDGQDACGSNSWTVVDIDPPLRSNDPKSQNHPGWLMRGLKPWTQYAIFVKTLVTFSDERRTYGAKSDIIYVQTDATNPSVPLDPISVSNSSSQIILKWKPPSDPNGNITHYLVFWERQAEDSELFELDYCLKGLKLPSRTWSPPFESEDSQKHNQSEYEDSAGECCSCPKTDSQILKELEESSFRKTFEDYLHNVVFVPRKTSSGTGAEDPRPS
Chain of Insulin receptor (P06213 763-1382 limits assumed): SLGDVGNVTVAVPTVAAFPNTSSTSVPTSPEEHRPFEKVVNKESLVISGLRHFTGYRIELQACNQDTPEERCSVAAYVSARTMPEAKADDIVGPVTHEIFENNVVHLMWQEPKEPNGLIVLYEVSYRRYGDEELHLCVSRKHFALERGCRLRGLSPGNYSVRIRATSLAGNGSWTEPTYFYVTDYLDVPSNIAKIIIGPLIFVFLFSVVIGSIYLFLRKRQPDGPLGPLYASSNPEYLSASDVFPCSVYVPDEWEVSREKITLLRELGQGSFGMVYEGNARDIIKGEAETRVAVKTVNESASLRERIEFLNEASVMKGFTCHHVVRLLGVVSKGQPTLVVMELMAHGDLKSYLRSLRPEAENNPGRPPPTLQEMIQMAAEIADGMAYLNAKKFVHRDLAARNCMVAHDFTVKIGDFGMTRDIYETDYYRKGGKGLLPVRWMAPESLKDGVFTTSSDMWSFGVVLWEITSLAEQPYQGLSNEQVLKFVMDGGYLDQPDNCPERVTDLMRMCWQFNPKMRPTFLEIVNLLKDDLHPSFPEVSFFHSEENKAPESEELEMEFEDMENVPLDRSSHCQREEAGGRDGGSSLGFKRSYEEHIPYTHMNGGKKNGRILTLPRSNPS

[9] = test system: C6; assay: Inhibition of C-6 rat glioma cell proliferation; format: functional, cell-based
[10] = test system: SW-620; assay: Inhibition of human colon carcinoma SW-620 cell proliferation; format: functional, cell-based
[11] = biological target: T1, Platelet-derived growth factor receptor (PDGFr); assay: as §1; format: functional

Chain of Cyclin-dependent kinase 4 (P11802 whole entry): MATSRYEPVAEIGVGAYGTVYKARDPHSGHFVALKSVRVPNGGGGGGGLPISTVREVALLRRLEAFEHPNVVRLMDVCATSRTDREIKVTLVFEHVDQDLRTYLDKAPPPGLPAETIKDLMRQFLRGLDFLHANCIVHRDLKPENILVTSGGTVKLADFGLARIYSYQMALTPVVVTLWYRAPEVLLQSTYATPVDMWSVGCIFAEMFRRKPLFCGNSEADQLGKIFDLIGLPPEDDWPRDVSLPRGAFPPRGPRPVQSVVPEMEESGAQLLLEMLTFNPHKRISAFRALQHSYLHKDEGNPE

**Q.** For `CCN(CC)CCCCNc1ncc2cc(-c3c(Cl)cccc3Cl)c(NC(=O)Nc3ccccc3)nc2n1`, which IC50 [1] is on record?
**A.** > 40 µM

**Q.** What about the IC50 [2] of the same compound?
**A.** 5 µM

**Q.** And the IC50 [3]?
**A.** 1.2 µM

**Q.** What about the IC50 [4] of the same compound?
**A.** 3.2 µM

**Q.** And the IC50 [5]?
**A.** 0.8 µM

**Q.** What about the IC50 [6] of the same compound?
**A.** 0.0075 µM

**Q.** And the IC50 [7]?
**A.** > 50 µM

**Q.** What about the IC50 [8] of the same compound?
**A.** > 50 µM

**Q.** And the IC50 [9]?
**A.** 8.1 µM

**Q.** And the IC50 [10]?
**A.** 2.6 µM

**Q.** Which IC50 [4] does the source give for `CN1CCN(CCCNc2ncc3cc(-c4c(Cl)cccc4Cl)c(NC(=O)Nc4ccccc4)nc3n2)CC1` here?
**A.** 4 µM

**Q.** And the IC50 [5]?
**A.** 1.5 µM

**Q.** And the IC50 [6]?
**A.** 0.015 µM

**Q.** What about the IC50 [11] of the same compound?
**A.** 0.37 µM

**Q.** And the IC50 [9]?
**A.** 6.7 µM

**Q.** And the IC50 [10]?
**A.** 4.1 µM
